Results as given in patent US20250194651A1, “STEVIOL GLYCOSIDE CONCENTRATES AND HIGHLY SOLUBLE STEVIOL GLYCOSIDES” (CARGILL, INCORPORATED, priority 2022, published 2025).
Where two headings read alike, the source gives them in different places. One block for each compound: values may come before it.

Assays:
[1] = Long-term solution stability (visual crystallization/precipitation time); format: physicochemical; conditions: for time until solution crashes out: solution of 1%
Procedure: (§1) Solutions were prepared by mixing one or more steviol glycoside component in purified water at ambient temperature. Solubility enhancers, preservatives, or ethanol were included only where expressly indicated and, when used, were added to the initial mixture prior to heating and dissolution. The mixtures were premixed and then subsequently heated via heat block or oven. Solutions took approximately one or two minutes to reach the target temperature, and then were maintained at the target temperature at least until complete dissolution of solids. Dissolution of solids was monitored visually during heating. After the heating period, fully dissolved solutions were permitted to cool to room temperature and were monitored for initial precipitation.
Solutions were further monitored for stability over periods of hours, days, weeks, and longer. Multiple techniques were utilized to evaluate stability. […] Solutions were also evaluated by recovering dissolved solids and then calculating percent recovery. If necessary, the solutions were filtered to remove undissolved material to assure that percent recovery reflected only dissolved steviol glycosides.
The rebaudioside M and A blend was further observed hourly for the first several hours, then monitored daily to evaluate long-term stability. Steviol glycoside binary blends in aqueous solvent (1%) were prepared from as an […].
Amounts of rebaudioside M and rebaudioside A in varying ratios were combined with purified water at room temperature and then heated to 85° C. with a heating block to effect dissolution. For example, for batches formulated to provide a concentration of about 10% DS, approximately 25 mg of each of rebaudioside M and rebaudioside A were dissolved in 500 μL of purified water. Samples were monitored until crystallization occurred or for at least 40 days. Solutions that remained clear and free of visible precipitation are identified in the tables below.
Steviol glycoside solutions of rebaudioside M and rebaudioside A were tested to determine if non-aqueous solvent was beneficial or detrimental to solution stability. Ingredients were combined in purified water at room temperature then heated to 85° C. with a heating block to effect dissolution. The solution was allowed to cool to ambient temperature, and then visually monitored for precipitation.

[2] = Aqueous solubility (background values); format: physicochemical; conditions: heating in near boiling water for 2 hours
[3] = cited from earlier work
[4] = Initial solubility in aqueous solution (visual dissolution on heating); format: physicochemical
Procedure: as §1
Various individual steviol glycosides were tested to evaluate initial solubility in aqueous solution as well as the long-term stability in solution. Ingredients were combined in purified water at room temperature then heated to 85° C. with a heating block to effect dissolution. […]

[5] = conventional formulations, aqueous solution at 25° C., WO 2017/120480 A1
[6] = 0.49% DS, after dissolution at 85° C.

Crystallization Time ([1]; 0.48% DS (Reb D), 0.5% DS (Total)): <2 h
Crystallization Time ([1]; 0.48% DS, after dissolution at 85° C.): <2 h
concentration temporarily dissolved [2]: 0.8 wt %
dissolution ([4]; 1% DS in water, heated to 85° C. for 20 minutes, cooled to room temperature (FIG. 1)): failed to dissolve
dissolution ([4]; 1% DS in water, heated to 85° C. for 20 minutes, cooled to room temperature (FIG. 1), listed as Reb D): cannot achieve dissolution
Compound: C=C1C[C@@]23CC[C@H]4[C@@](C)(CCC[C@@]4(C)C(=O)O[C@@H]4O[C@H](CO)[C@@H](O)[C@H](O)[C@H]4O[C@@H]4O[C@H](CO)[C@@H](O)[C@H](O)[C@H]4O)[C@@H]2CC[C@]1(O[C@@H]1O[C@H](CO)[C@@H](O)[C@H](O[C@@H]2O[C@H](CO)[C@@H](O)[C@H](O)[C@H]2O)[C@H]1O[C@@H]1O[C@H](CO)[C@@H](O)[C@H](O)[C@H]1O)C3 [D, rebaudioside D]
dissolved content in aqueous solution [3, 5]: about 0.05 wt %

Crystallization Time [1, 6]: 336 h
Compound: C=C1C[C@@]23CC[C@H]4[C@@](C)(CCC[C@@]4(C)C(=O)O[C@@H]4O[C@H](CO)[C@@H](O)[C@H](O)[C@H]4O[C@@H]4O[C@H](CO)[C@@H](O)[C@H](O)[C@H]4O)[C@@H]2CC[C@]1(O[C@@H]1O[C@H](CO)[C@@H](O)[C@H](O)[C@H]1O[C@@H]1O[C@H](CO)[C@@H](O)[C@H](O)[C@H]1O)C3 [E, rebaudioside E]

Crystallization Time ([1]; 0.53% DS, after dissolution at 85° C.): <2 h
Soluble? [4]: Y
dissolution ([4]; 1% solution, purified water, heated to 85° C.): failed to dissolve
Compound: C=C1C[C@@]23CC[C@H]4[C@@](C)(CCC[C@@]4(C)C(=O)O[C@@H]4O[C@H](CO)[C@@H](O)[C@H](O)[C@H]4O[C@@H]4O[C@@H](C)[C@H](O)[C@@H](O)[C@H]4O)[C@@H]2CC[C@]1(O[C@@H]1O[C@H](CO)[C@@H](O)[C@H](O[C@@H]2O[C@H](CO)[C@@H](O)[C@H](O)[C@H]2O)[C@H]1O[C@@H]1O[C@H](CO)[C@@H](O)[C@H](O)[C@H]1O)C3 [J, rebaudioside J]

Crystallization Time ([1]; 0.33% DS, after dissolution at 85° C.): <72 h
Soluble? [4]: Y
Compound: C=C1C[C@@]23CC[C@H]4[C@@](C)(CCC[C@@]4(C)C(=O)O[C@@H]4O[C@H](CO)[C@@H](O)[C@H](O[C@@H]5O[C@H](CO)[C@@H](O)[C@H](O)[C@H]5O)[C@H]4O[C@@H]4O[C@H](CO)[C@@H](O)[C@H](O)[C@H]4O)[C@@H]2CC[C@]1(O[C@@H]1O[C@H](CO)[C@@H](O)[C@H](O[C@@H]2O[C@H](CO)[C@@H](O)[C@H](O)[C@H]2O)[C@H]1O[C@@H]1O[C@H](CO)[C@@H](O)[C@H](O)[C@H]1O)C3 [M (RM01), rebaudioside M]

Crystallization Time [1, 6]: <1 h
Soluble? [4]: Y
Compound: C=C1C[C@@]23CC[C@H]4[C@@](C)(CCC[C@@]4(C)C(=O)O[C@@H]4O[C@H](CO)[C@@H](O)[C@H](O[C@@H]5O[C@H](CO)[C@@H](O)[C@H](O)[C@H]5O)[C@H]4O[C@@H]4O[C@@H](C)[C@H](O)[C@@H](O)[C@H]4O)[C@@H]2CC[C@]1(O[C@@H]1O[C@H](CO)[C@@H](O)[C@H](O[C@@H]2O[C@H](CO)[C@@H](O)[C@H](O)[C@H]2O)[C@H]1O[C@@H]1O[C@H](CO)[C@@H](O)[C@H](O)[C@H]1O)C3 [N, rebaudioside N]

appearance (FIG. 3, bottom) ([1]; about 10% DS, only rebaudioside A): intense precipitation
time until solution crashes out [1]: ≤ 72 h
Compound: C=C1C[C@@]23CC[C@H]4[C@@](C)(CCC[C@@]4(C)C(=O)O[C@@H]4O[C@H](CO)[C@@H](O)[C@H](O)[C@H]4O)[C@@H]2CC[C@]1(O[C@@H]1O[C@H](CO)[C@@H](O)[C@H](O[C@@H]2O[C@H](CO)[C@@H](O)[C@H](O)[C@H]2O)[C@H]1O[C@@H]1O[C@H](CO)[C@@H](O)[C@H](O)[C@H]1O)C3 [rebaudioside A]
dissolved content in aqueous solution ([3]; purified, in water at 25° C., WO 2012/082587 A2): about 0.8 wt %

time until solution crashes out [1]: less than an hour
Compound: C=C1C[C@@]23CC[C@H]4[C@@](C)(CCC[C@@]4(C)C(=O)O[C@@H]4O[C@H](CO)[C@@H](O)[C@H](O[C@@H]5O[C@H](CO)[C@@H](O)[C@H](O)[C@H]5O)[C@H]4O[C@@H]4O[C@H](CO)[C@@H](O)[C@H](O)[C@H]4O)[C@@H]2CC[C@]1(O[C@@H]1O[C@H](CO)[C@@H](O)[C@H](O[C@@H]2O[C@H](CO)[C@@H](O)[C@H](O)[C@H]2O)[C@H]1O[C@@H]1O[C@H](CO)[C@@H](O)[C@H](O)[C@H]1O)C3 [rebaudioside M]
dissolved content in aqueous solution [3, 5]: about 0.1 wt %
dissolved concentration in aqueous solution ([3]; room temperature, freeze or spray dried, WO '480, stability over time not reported): 0.5 wt %

Crystallization Time ([1]; 0.47% DS, heated to 85° C.): Immediate
Compound: rebaudioside B
